Data on six compounds can be found in patent US10463044B2, “Molecules that inhibit efflux pumps in multi-drug resistant bacteria and uses thereof” (priority 2014, dated 2019).

Data set [1] deals with K-12 E. coli. Kind of data set: MIC, K-12 E. coli. As to conditions: compound alone. Format: cell-based, Escherichia coli. An excerpt:
(§1) Minimal Inhibitory Concentration (MIC) Procedure. […] Streak the E. coli (DH5α or K-12 MG1655) strain on L.B agar plates. […] Prepare initial concentration of all the compounds required. • 5. […] Vortex each test tube for 2-3 seconds. • 9. […] Vortex each test tube for 2-3 seconds. • 11.

The test system of data set [2] is K-12 E. coli. The data set is described as follows: Combination of amphiphile and antibiotic against K-12 E. coli. Format: cell-based, Escherichia coli.
Protocol: Steps 1-7, described in the MIC procedure, shown in Example 2, were followed. • 2. While the E. coli grew, the appropriate volume of compound was added to each test tube. • 3. Antibiotics were added at the required volume of solution to obtain the desired concentration in each test tube. […] Each test tube was vortexed for 2-3 seconds. • 5. Steps 10-12 from the MIC procedure, shown in Example 2, were then executed.
The subject of data set [3] is S. cerevisiae. Kind of data set: Minimum inhibitory concentration (MIC), S. cerevisiae. Conditions: compound alone. Format: cell-based, Saccharomyces cerevisiae.
Data set [4] relates to B. subtilis. Kind of data set: Minimum inhibitory concentration (MIC), B. subtilis. Conditions: compound alone. Format: cell-based, Bacillus subtilis. The method, then: Among the organisms studied are several strains of the bacterium E. coli. […] Experiments were conducted to determine the MIC values for the synthetic amphiphiles known as lariat ethers according to the procedures described in Antimicrobial M07-A9: Methods for Dilution Antimicrobial Susceptibility Tests for Bacteria that Grow Aerobically; Clinical and Laboratory Standards Institute, 2012; Vol. 32, 67 pp. MIC values so determined for several lariat ethers and for several antibiotics are shown in Table 1.

The test system of data set [5] is E. coli. The data set is described as follows: Minimum inhibitory concentration (MIC), E. coli. Format: cell-based, Escherichia coli. As to conditions: compound alone.
Source text: (§2) Among the organisms studied are several strains of the bacterium E. coli.
as §1

For data set [6], the system named is tetracycline resistant E. coli (tetA efflux pump). Format: cell-based, Escherichia coli. The procedure:
(§3) However, the bacterial strains used herein are multidrug resistant and the effect of hydraphiles on the inhibition of resistance mechanism (efflux pumps) was not known. The hydraphiles and the controls were tested next to see whether they could recover the activity of antibiotics against efflux pump expressing Gram-positive and Gram-negative bacteria. The MIC of antibiotics were determined in the presence of ½ [MIC] or ¼ [MIC] of each hydraphile or the controls used.

The test system of data set [7] is K. pneumoniae (ATCC BAA 2146). The data set is described as follows: MIC, K. pneumoniae. Conditions: for MIC: Klebsiella pneumoniae, BAA2146, read-out: Minimal Inhibitory Concentrations (MIC) K. pneumoniae. It counts as cell-based, Klebsiella pneumoniae. An excerpt:
(§4) K. pneumoniae (ATCC BAA 2146; another Gram-negative bacterium) that expresses multiple classes of efflux pumps and NDM-1 gene was also used. This K. pneumoniae is a clinically relevant strain that was isolated from a patient. Gram-positive S. aureus 1199B was used that overexpresses the NorA efflux pump. Since ethidium bromide and norfloxacin are the substrates of efflux pumps, S. aureus 1199B was used to evaluate the activity of efflux pumps in the presence of the hydraphiles and other membrane disruptors.
(§5) The minimal inhibitory concentrations (MIC) of all the compounds against three bacterial strains were first determined using the microtiter technique as described above. […] Antimicrobial property of hydraphiles is attributed to the disruption of ion homeostasis in bacteria.

Data set [8] concerns K. pneumoniae (ATCC BAA 2146). The data set is described as follows: Recovery of antibiotic activity against K. pneumoniae by hydraphiles. Format: cell-based, Klebsiella pneumoniae. The procedure:
as §3

The test system of data set [9] is S. aureus 1199B. The data set is described as follows: MIC, S. aureus 1199B. It counts as cell-based, Staphylococcus aureus.
Source text: as §4, §5

In data set [10] the test system is tetracycline resistant E. coli (tetA efflux pump). The data set is described as follows: microbe, parasite or virus in culture. Format: cell-based, Escherichia coli. As to conditions: compound alone; for MIC: tetracycline resistant E. coli.
Source text: as §2
Minimal Inhibitory Concentration (MIC) Procedure. […] Streak the E. coli (DH5α or K-12 MG1655) strain on L.B agar plates. […] Prepare initial concentration of all the compounds required. • 5. […] Vortex each test tube for 2-3 seconds. • 9. […] Vortex each test tube for 2-3 seconds. • 11. […]
as §5

The subject of data set [11] is HEK-293 cells. The data set is described as follows: Toxicity of lariat ethers to HEK-293 cells (MTT assay). It counts as cell-based. An excerpt: The error bars represent the standard error. […]
In general terms: Formazan colour is commonly taken as a measure of viable cells.

Data set [12] relates to DH5α E. coli. Format: cell-based, Escherichia coli. As to conditions: compound alone.
Source text: as §2, §1

[13] abbreviates: Tetracycline, amphiphile used 16 μM.

≈ marks a conversion by molar mass, not a printed value. Where “and” joins values, the source holds several entries; their conditions need not be identical. Equal entries are not always repeated. Where two headings read alike, the source gives them in different places.

“N,N′-di-n-dodecyl-4,13-diaza-18-crown-6 [C12 lariat ether]”: in data set [1], the MIC is recorded as greater than 512 µM. In data set [2] (setting [13]), the “Antibiotic Used (μM) in combination” value was determined as 3 µM and the “Fold Enhancement” value is recorded as 2 fold. In addition, in [3], the “MIC (μM) S. cerevisiae” value was determined as 2.5 µM. The “MIC (μM) B. subtilis” value in [4] turned out to be 2.5 µM. The “MIC (μM) E. coli” value in data set [5] is greater than 300 µM. Further, in data set [6] (amphiphile used 192 μM), the “Antibiotic Used (μM) in combination” value was 450 µM and the “Fold Enhancement” value was determined as 2 fold.

Turning to `O=C(O)c1cn(C2CC2)c2cc(N3CCNCC3)c(F)cc2c1=O` [Ciprofloxacin], the MIC in data set [7] turned out to be 700 µM (≈ 232 µg/mL). For the same compound, in [8], the “recovery of ciprofloxacin activity by hydraphiles” value was 10 fold. In addition, the “susceptibility of S. aureus 1199B” value in data set [9] is “resistant”.

With `CN(C)[C@@H]1C(O)=C(C(N)=O)C(=O)[C@@]2(O)C(O)=C3C(=O)c4c(O)cccc4[C@@](C)(O)[C@H]3C[C@@H]12` [tetracycline], the MIC in data set [10] (Escherichia coli) is roughly 900 µM (≈ 400 µg/mL); in [10], 900 ± 50 µM and 900 µM; in data set [1] (Escherichia coli) it was 6 µM (≈ 2.67 µg/mL); in data set [7], 1000 µM (≈ 444 µg/mL). Also, in data set [10] (microtiter, inhibition greater than 80% considered as the MIC), the “Minimal Inhibitory Concentrations (MIC) E. coli (Tet^R)” value was 900 µM and 900 ± 100 µM. Besides, the “Minimal Inhibitory Concentrations (MIC) K. pneumoniae” value in data set [7] (compound alone, inhibition greater than 80% considered as the MIC) worked out at 1000 ± 100 µM. Besides, in [8], the “recovery of tetracycline activity by hydraphiles” value is 40 fold.

For “N,N′-di-n-decyl-4,13-diaza-18-crown-6 [C10 lariat ether]”, the “MIC” value is 16 µM in data set [10], 12 µM in data set [1] and 12 µM in data set [12]. Also, the “Antibiotic Used (μM) in combination” value was 5 µM in data set [2] (Rifampicin, amphiphile used 6 μM); 225 µM in [6] (amphiphile used 6 μM); 56 µM in [6] (amphiphile used 9 μM). For the same compound, the “MIC (μM) S. cerevisiae” value in data set [3] was found to be 2.8 µM. In addition, in data set [11], the “toxicity to HEK-293 compared among lariat ethers” value was “highest toxicity”. Further, the “MIC (μM) B. subtilis” value in [4] was found to be 2.8 µM. In addition, the “MIC (μM) E. coli” value in data set [5] amounted to 11 µM. In addition, the “Fold Enhancement” value in data set [6] (amphiphile used 6 μM) amounted to 4 fold; in [6] (amphiphile used 9 μM) it was 16 fold.

In the case of `c1ccc(CN2CCOCCOCCN(Cc3ccccc3)CCOCCOCC2)cc1` [Dibenzyl diaza crown, N,N′-Dibenzyl-4,13-diaza-18-crown-6, reference compound], in data set [6] (amphiphile/control 128 μM), the Fold Enhancement is 1-fold and the “[Tetracycline] μM in combination” value is 900 µM. In addition, the Fold Enhancement entry in data set [6] (amphiphile/control 128 μM, listed as Dibenzyl di-aza-crown) is on record as “did not show any recovery”.

“N,N′-di-n-tetradecyl-4,13-diaza-18-crown-6 [C14 lariat ether]”: in data set [3], the “MIC (μM) S. cerevisiae” value was greater than 300 µM. For the same compound, in [4], the “MIC (μM) B. subtilis” value is greater than 300 µM. The “MIC (μM) E. coli” value in data set [5] is greater than 300 µM.
